Measured values: publication PMC10709007, “GPR162 is a beta cell CART receptor” (iScience, 2023)
Entries after “also recorded” stand apart in the source; their conditions may differ. *1 amine or outer side, *2 acyl side, *3 side chain or, on linkers, in order; H or OH if unused. Where a SMILES comes first, the peptide text is derived from it. Bridges are numbered along the chain shown (N, C = ends). Roman numbers before positions name the chains, in order. Where no end group is shown, it is not given here. [ ]: non-standard residue; d: D form. Actinocin(9to1) = Cc1c2oc3c(C)ccc(C(=O)[*:1])c3nc-2c(C(=O)[*:2])c(N)c1=O; NMeV = CN[C@H](C(=O)O)C(C)C; Sar = CNCC(=O)O

Assays:
INS-1 832/13 cells = assay: Radioactive binding of 125I-CARTp55-102 to INS-1 832/13 cells; parameters: species or system rat
Experimental: ^125I was incorporated into the meta-position of tyrosine side chains of CARTp55-102 using oxidative iodination. 20 μL of a 300 mM phosphate buffer (pH 7.4) was used to resuspend 1 nmol of the CARTp55-102 peptide, after which 0.4 mCi ^125I (NEZ033A, PerkinElmer, Waltham, MA) was added. A volume of 30 μL 3 mg/mL Chloramine-T in phosphate buffer was added gradually while stirring over 6 min, and the reaction was quenched by adding 400 μL H2O with 0.1% trifluoroacetic acid (TFA). The radiolabeled peptide was purified by reversed-phase HPLC on a C18 column and […]. Elution fractions of 1 mL were collected and it was determined where the radiolabeled peptide eluted by measuring γ radiation intensity on a PerkinElmer 2470 Automatic Gamma Counter (PerkinElmer).
INS-1 cells were seeded to 24-well plates and transfected with Gpr162 siRNA (or control siRNA). Two days after transfection cells were assayed for competition binding for 3 h at 4°C using 10–15 p.m. ^125I CARTp55-102 or unlabeled CARTp55-102 in 0.4 mL of 50 mM HEPES buffer (pH7.4 supplemented with 1 mM CaCl2, 5 mM MgCl2 and 0.5% (w/v) bovine serum albumin). After incubation cells were washed two times in binding buffer supplemented with 0.5 M NaCl at 4°C. Non-specific binding was determined as the binding in the presence of 0.1μM unlabeled CARTp55-102.

CART receptor = conditions: cited from earlier work
Source text: However, much earlier, a fragment of the CART peptide was identified in extracts of sheep hypothalamus.[2] CART was later found to be expressed also in pancreatic islet cells and in nerve fibers innervating the islets.[3]^,[4]^,[5] […] Since then, multiple biological effects of CART have been established.[4]^,[7] Among them is the effect of CART on islet hormone secretion fr ...

PC12 cells = system: PC12 cells; parameters: method as in PMID 21855138; conditions: cited from earlier work
Source text: However, much earlier, a fragment of the CART peptide was identified in extracts of sheep hypothalamus.[2] CART was later found to be expressed also in pancreatic islet cells and in nerve fibers innervating the islets.[3]^,[4]^,[5] […] Among them is the effect of CART on islet hormone secretion fr ...

Gpr162 mRNA = system: Gpr162 mRNA; parameters: method as in PMID 24937127; conditions: streptozotocin-treated rats; cited from earlier work
KATO III cells = conditions: KATOIII cells; cited from earlier work
Source text: When studying neuropathic pain, Yosten et al.[11] found GPR160 to be necessary for CARTp-mediated cell activation in cell culture. […] Information on GPR160 is scarce, but it has been reported to be a potential marker for prostate cancer,[24] where it is involved in apoptosis and cell-cycle arrest.[25] […] Recently, the notion of GPR160 being the ...

^125I-CARTp55-102: ^125I was incorporated into the meta-position of tyrosine side chains of CARTp55-102 using oxidative iodination (IPIYEKKYGQVPMCDAGEQCAVRKGARIGKLCDCPRGTSCNSFLLKCL; ends and bridges not checked; also: 125I in meta-position of tyrosine side chains)
Binding of 125I-CARTp55-102 after Gpr162 siRNA/KD (INS-1 832/13 cells; Gpr162 KD vs negative control, 3 h at 4°C, 2 days after transfection, n = 3, p < 0.05): binds to a lower extent to Gpr162 KD INS-1 832/13 cells; also recorded: the degree of binding was lower in cells treated with Gpr162 siRNA
Binding of 125I-CARTp55-102 to cells (INS-1 832/13 cells; competition binding 3 h at 4°C, 50 mM HEPES pH7.4, non-specific with 0.1μM unlabeled CARTp55-102, n = 3): binds to INS-1 832/13 cells

pertussis toxin
CARTp-mediated phosphorylation of ERK (CART receptor): inhibited

C[C@@H]1C[C@@H]([C@H](O)CC2CC(=O)NC(=O)C2)C(=O)[C@@H](C)C1 [cycloheximide]
Effect on (radiolabeled) CART binding (PC12 cells): inhibited

Cc1c2oc3c(C)ccc(C(=O)N[C@@H]4C(=O)N[C@H](C(C)C)C(=O)N5CCC[C@H]5C(=O)N(C)CC(=O)N(C)[C@@H](C(C)C)C(=O)O[C@@H]4C)c3nc-2c(C(=O)N[C@@H]2C(=O)N[C@H](C(C)C)C(=O)N3CCC[C@H]3C(=O)N(C)CC(=O)N(C)[C@@H](C(C)C)C(=O)O[C@@H]2C)c(N)c1=O [actinomycin D] (I: T[dV]P[Sar][NMeV] / II: T[dV]P[Sar][NMeV]; ester I:1-I:C, II:1-II:C; linker I:N-II:N via Actinocin(9to1))
Effect on (radiolabeled) CART binding (PC12 cells): inhibited

PACAP6-38: CART receptor antagonist (FTDSYSRYRKQMAVKKYLAAVLGKRYKQRVKNK; ends and bridges not checked; UniProt P18509 137-169, looked up, fragment)
CART receptor antagonism (CART receptor): acts as a CART receptor antagonist

CN(N=O)C(=O)N[C@H]1C(O)O[C@H](CO)[C@@H](O)[C@@H]1O (mixture of isomers) [streptozotocin]
Gpr162 mRNA expression, brain (Gpr162 mRNA): increased
Gpr162 mRNA expression, right ventricle of the heart and kidney (Gpr162 mRNA): reduced Gpr162 mRNA expression

C-peptide
Effect of GPR160 on C-peptide-induced cFOS expression (KATO III cells): GPR160 has no effect on C-peptide-induced cFOS expression

radiolabeled CART peptide: radiolabeled CART of cited earlier studies in AtT20 and PC12 cells (IPIYEKKYGQVPMCDAGEQCAVRKGARIGKLCDCPRGTSCNSFLLKCL; ends and bridges not checked; also: 125I in meta-position of tyrosine side chains)
Specific binding in PC12 cells (PC12 cells): high-affinity-specific binding in PC12 cells
